Results reported in patent US7345078B2, “NF-κB inhibitors and uses thereof” (The Board of Trustees of Michigan State University, priority 2002, dated 2008).

Assays:
NF-κB [1] = molecular target: T1, NF-κB (Homo sapiens, UniProt P19838+Q04206); experiment: IC50 values in Mammalian Jurkat cells Leukemia T cells; assay type: cell-based; parameters: endogenous in cells; host or cells: Jurkat leukemia T-cells, clone E6-1 (ATCC), PMA-stimulated; nuclear extract; conditions: concentration at which 50% of the protein/enzyme is inhibited in cells
Procedure: (§1) All compounds were evaluated for their potential anti-inflammatory activity by examining the activity of NF-κB in vitro in nuclear extracts using the procedure from Breton and Charbot-Fletcher (Breton et al., J. Pharmacol. Exp. Ther. 282 459-466 (1997)). […] The Jurkat cells (1×10^7 cells/mL) are subsequently treated with various concentrations of imidazoline for 30 minutes at 37° C. followed by PMA stimulation (5.0 ng/mL) for an additional 5 hours. Nuclear extracts are incubated for 20 minutes with a double stranded Cy3 labeled NF-κB consensus oligonucleotide, 5′-[…]-3′ (SEQ ID NO:1) at room temperature. The crude mixture is loaded on a 5% non-denaturing polyacrylamide gel prepared in 1×Tris borate/EDTA buffer and electrophoresed at 200V for 2 hours. After electrophoresis the gel is analyzed using a phosphorimager (Biorad FX PLUS) for detection of the NF-κB-DNA binding.
IC50 values in Mammalian Jurkat cells Leukemia T cells: IC50 value is defined as the concentration of compounds at which 50% of the protein/enzyme is inhibited in cells (Table 3).

NF-κB [2] = molecular target: T1, NF-κB; experiment: EMSA of nuclear NF-κB-DNA binding in nuclear extracts of PMA-stimulated Jurkat leukemia T-cells; assay type: cell-based; parameters: endogenous in cells; host or cells: Jurkat leukemia T-cells, clone E6-1 (ATCC), PMA-stimulated; nuclear extract; conditions: compound 1.0 μM
Procedure: as §1
EMSA assay for NF-κB-DNA binding was as follows. […] The Jurkat cells (1×10^6 cells/mL) were subsequently treated with various concentrations of the compounds for 30 minutes at 37° C. and 5% CO2 followed by PMA (50 ng/mL) and PHA ([…]) stimulation for an additional 30 minutes. The cells were harvested by centrifugation, washed in ice cold PBS and the nuclear extracts were prepared as previously described (Dignam, et al., Nucl. Acids Res 11: 1475-1489 (1983)). The protein concentration of the extracts was determined according to the Method of Bradford (1976) with BioRad reagents. Nuclear extracts are incubated for 20 minutes at room temperature with a double stranded Cy3 labeled NF-kB consensus oligonucleotide, 5′-[…] CCAGGC-3′ (SEQ ID NO:1). The binding mixture ([…]) contained 10 mM HEPES-NaOH pH 7.9, 4 mM tris-HCl, pH 7.9, 6.0 mM KCl, 1 mM EDTA, 1 mM DTT, 10% glycerol, 0.3 mg/mL bovide serum albumin and […] of poly (dI.dC). The binding mixtures ([…] of nuclear extract protein) were incubated for 20 minutes at room temrperature with 0.16 pmol of Cy3 labeled oligonucleotide. The mixture was loaded on a 4% polyacrylamide gel prepared in 1× tris borate/EDTA buffer and was electrophoresed at 200 V for 20 minutes. After electrophoresis the gel was analyzed using a phosphorimager (Biorad FX plus) for detection of the NF-kB—DNA binding.

Micrococcus luteus = experiment: standardized disk diffusion method (zone diameter / MIC); assay type: cell-based; conditions: at the amount printed in the same cell
Procedure: (§2) Compounds 4, 6, and 7 were tested for the inhibition of bacteria. A total of 9 bacterial strains were screened. The following Gram-negative and Gram-positive bacteria were included: Staphylococcus aureus, Enterobacter aerogenes, Esherichia coli, Klebsiella pneumonia, Pseudomonas aeruginosa, Serratia marcescens, Bacillus cerius, Bacillus subtillus and micrococcus luteus. Bacterial isolates were removed from storage, streaked on to nutrient agar plates and incubated for 18-24 hours at 35° C. A working bacterial suspension was prepared by suspending 3-5 isolated colonies in 5 mL saline solution. The turbidity of this suspension was carefully adjusted photometrically to equal that of a 0.5 McFarland standard. The zone diameters were determined by a standardized disk diffusion method using cation-supplemented Mueller-Hinton agar according to NCCLS guidelines (National Committee for Clinical Laboratory Standards. Methods for dilution Antimicrobial Susceptibility Tests for Bacteria that Grow Aerobically. Fifth Edition: Approved Standard M7-A5. Wayne, Pa.: NCCLS (2000)). Minimum inhibitory concentrations (MICs) were considered the lowest concentration that gave a clear zone of inhibition. The inoculated agar plates were incubated for 16-20 hours at 35° C. in ambient air. The diameters of the zones were read in millimeters.

Bacillus cereus = experiment: as above; assay type: cell-based; conditions: at the amount printed in the same cell
Procedure: as §2

Staphylococcus aureus = experiment: as above; assay type: cell-based; conditions: at the amount printed in the same cell
Procedure: as §2

Bacillus subtillus = experiment: as above; assay type: cell-based; conditions: at the amount printed in the same cell
Procedure: as §2

RIF-1 murine tumor = experiment: RIF-1 murine model of tumor growth delay; assay type: in vivo, mice
Procedure: Tumor cells were injected, bilaterally, into the backs of mice. When tumors reached 100 mm^3, the mice were treated with an intraperitoneal injection of the compound. Tumor volumes were measured 3 times a week until they reached 4 times the size they were on the first treatment day. Data is recorded as “Days to 4×’ or ratio of ‘Days to 4×” of the treated over untreated controls.

T1 sequence (Q04206 whole entry): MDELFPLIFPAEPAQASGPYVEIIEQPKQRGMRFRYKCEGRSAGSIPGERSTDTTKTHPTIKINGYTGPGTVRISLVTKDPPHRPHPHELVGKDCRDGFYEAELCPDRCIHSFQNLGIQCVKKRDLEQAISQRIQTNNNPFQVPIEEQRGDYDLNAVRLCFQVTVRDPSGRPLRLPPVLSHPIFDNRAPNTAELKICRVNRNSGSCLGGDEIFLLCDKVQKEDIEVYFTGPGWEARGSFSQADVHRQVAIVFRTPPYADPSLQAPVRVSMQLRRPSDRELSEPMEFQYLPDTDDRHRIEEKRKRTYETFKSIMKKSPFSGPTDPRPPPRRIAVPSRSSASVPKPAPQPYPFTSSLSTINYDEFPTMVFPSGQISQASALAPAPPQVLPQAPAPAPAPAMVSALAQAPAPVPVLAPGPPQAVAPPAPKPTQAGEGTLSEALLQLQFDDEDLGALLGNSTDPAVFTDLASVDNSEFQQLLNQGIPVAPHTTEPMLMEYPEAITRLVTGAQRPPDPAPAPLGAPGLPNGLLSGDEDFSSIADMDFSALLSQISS
T1 sequence (P19838 1-433 limits assumed): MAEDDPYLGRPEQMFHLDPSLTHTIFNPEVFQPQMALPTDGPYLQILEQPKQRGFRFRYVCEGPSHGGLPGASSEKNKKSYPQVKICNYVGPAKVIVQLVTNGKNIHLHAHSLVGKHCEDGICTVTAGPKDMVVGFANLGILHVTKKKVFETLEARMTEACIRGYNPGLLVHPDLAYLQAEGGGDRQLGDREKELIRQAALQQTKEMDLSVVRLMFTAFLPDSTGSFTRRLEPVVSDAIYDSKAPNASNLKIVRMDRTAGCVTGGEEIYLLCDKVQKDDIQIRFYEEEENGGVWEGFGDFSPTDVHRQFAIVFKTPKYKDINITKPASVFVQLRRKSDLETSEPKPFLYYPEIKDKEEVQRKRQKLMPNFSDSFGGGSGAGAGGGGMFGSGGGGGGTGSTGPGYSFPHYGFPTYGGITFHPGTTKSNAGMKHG

O=C(O)[C@@]1(c2ccccc2)N=C(c2ccccc2)N(Cc2ccccc2)[C@H]1c1ccccc1 (racemic) [Compound 4, Dl-(3S,4S)-1-Benzyl-2,4,5-triphenyl-4,5-dihydro-1H-imidazole-4-carboxylic acid]
IC50 (NF-κB [1]): 73 nM
inhibition at 1 µM (NF-κB [2]): 65%
zone of inhibition diameter (Micrococcus luteus): 12 mm
zone of inhibition diameter (Bacillus cereus): 11 mm
zone of inhibition diameter (Staphylococcus aureus): 12 mm
zone of inhibition diameter (Bacillus subtillus): 13 mm
Days Delay (tumor growth delay) (RIF-1 murine tumor; IP, imidazoline 100 mg/kg, cis-platin 4 mg/kg, camptothecin 6 mg/kg): -0.56 days
Median (days to 4x) (RIF-1 murine tumor; IP, imidazoline 100 mg/kg, cis-platin 4 mg/kg, camptothecin 6 mg/kg, untreated 7.0): 6.5 days
Days to 4x (Ave ±SE) (RIF-1 murine tumor; IP, imidazoline 100 mg/kg, cis-platin 4 mg/kg, camptothecin 6 mg/kg, untreated 7.3 ± 0.6): 6.4 ± 0.2 days
tumors < 4x at Day 22 (RIF-1 murine tumor; cis-platin 4 mg/kg + compound 4 100 mg/kg IP): 4 of the 8
chemopotentiation of camptothecin (RIF-1 murine tumor; combinational treatment with camptothecin (CPT), RIF-1 tumors in mice): No significant chemopotentiation
chemopotentiation of cis-platin (RIF-1 murine tumor; combinational treatment with cis-platin (CDDP), RIF-1 tumors in mice): considerable chemopotentiation
